pIC50: −log10 of the molar value. Counter-ions that a name gives are not always drawn.
What follows are molecules tested against α-glucosidase I (assay: Microtiter plate assay for α-glucosidase I activity). Details: [3H]G3M9N substrate, purified α-glucosidase I, pH 6.8, 37° C., one hour.
Assay type: biochemical
Method: The [^3 H] glucose labeled oligosaccharides substrate (G3 M9 N) for glucosidase I was prepared by metabolically labeling exponentially growing BHK cells with [^3 H]galactose in the presence of 200μg/ml of castanospermine. BHK cells grown as monolayer were treated with 200μg/ml of castanospermine in DMEM (#430-1600) supplemented with 10% heat inactivated fetal calf serum, 2 mM L-glutamine and 1X of PSN antibiotic mixture. After three hour incubation with castanospermine, [1-^3 H] galactose (10μci/ml of media) was added to label the glycoproteins and cells were allowed to grow to confluency for an additional 48 hours. At the end of labeling period, the cells were washed with cold PBS and scraped with a rubber policeman. Cell pellet was heated for 10 minutes at 100° C. and exhaustively treated with pronase (usually 72 hrs) in 50 mM Tris pH 7.5 containing 10 mM CaCl2 and 1% Pronase under toluene atmosphere to obtain glycopeptides. The glycopeptides were separated on columns of Bio-gel P-4. The glycopeptides peak produced by castanospermine treatment was pooled, treated with Endo-H to release the oligosaccharides. The oligosaccharides obtained by endo-H hydrolysis were bound to a ConA column previously washed with buffer A (50 mM Tris pH 7.5 containing 500 mM NaCl) and equilibrated with buffer B (5 mM Sodium acetate buffer pH 5.5 containing 2 mM of each CaCl2, MgCl2 and MnCl2). The oligosaccharides were then eluted with buffer B containing 100 mM α-methylmannoside. The oligosaccharides eluted from ConA column were further purified and characterized on a calibrated Biogel P-4 column (1.5×200 cm, (-) 400 mesh). The purified oligosaccharides having GLc3 Man9 GlcNAc structure were used as substrate in these studies. […]
ConA-sepharose was washed first with buffer A, then with buffer B as described above, and resuspended in buffer B (gel: buffer, 1:1) before use. […] A 150 μl aliquot of supernatant was removed and counted.

Compound | pIC50
OC[C@@H]1[C@@H](O)[C@H](O)[C@@H](O)[C@H]2CCCN21 [Compound VII] | 6.52
OC[C@@H]1[C@@H](O)[C@H](O)[C@@H](O)[C@H]2[C@@H](O)CCCN21 [Compound XXI, [1S-(1α,2β,3α,4β,9α,9aβ)]-octahydro-4-(hydroxy-methyl) -2H-quinolizine-1,2,3,9-tetrol hydrochloride] | 6.82
O=C(O[C@H]1CCCN2[C@H]1[C@H](O)[C@@H](O)[C@H](O)[C@H]2CO)c1ccccc1 [XVII, [1S-(1α,2β,3α,4β,9α,9aβ) ]-octahydro-4-(hydroxymethyl)-2H-quinolizine-1,2,3,9-tetrol 9-benzoate] | 4.54

Source: patent US5028614A, “Hydroxymethyl-indolizidines and quinolizidines and their use as α-glucosidase I inhibitors” (Merrell Dow Pharmaceuticals Inc., priority 1990, dated 1991)
